# US20240398814A1, “KRAS INHIBITOR AND HDAC INHIBITOR COMBINATION FOR THE TREATMENT OF CANCER” (Northwestern University, priority 2023, published 2024)
# What was measured:
# H460 cells = test: qRT-PCR of chemokine gene expression in H460 cells; assay type: cell-based, human; conditions: 1 uM entinostat 4 days, 5 uM BRD3308 4 days
# Protocol: (§1) All cell lines were incubated at 37° C. and were maintained in an atmosphere containing 5% CO2. Cells were tested for Mycoplasma (Lonza) using manufacturer's conditions and were deemed negative. Cells were grown in Dulbecco's modified Eagles medium (DMEM) plus 10% fetal bovine serum (Gibco) and were continuously maintained under antibiotic selection for stable cell lines. Proliferation assays were performed by plating 2×10^3 cells per well of a 6-well plate, and cells were counted 5 days post-plating. Drug treatments were carried out using the following doses: entinostat 1 uM or 2 uM, RGFP966 10uM, TSA 0.5 uM, BRD3308 5 uM, trametinib 5 nM, 10 nM, and 25 nM, and MRTX1133 10 nM, 25 nM, and 50 nM, as indicated for the indicated treatment lengths. Media was changed and fresh drug added every 2 days.
# (§2) mRNA was prepared using the Quick-RNA Miniprep kit (Zymo Research), including DNase treatment. cDNA was synthesized from 2 μg of RNA using SuperScript III (Life Technologies), and qPCR was carried out with diluted cDNA, appropriate primers, and SYBR Green PCR master mix (ThermoFisher Scientific) using a C1000 Thermal Cycler (BioRad). Relative mRNA levels were calculated using the delta Ct method, using Tbp as an internal control.
# [1] = test system: human LKB1 mutant lung cancer cells; test: FGFR1 resistance mechanism in human LKB1 mutant lung cancer cells; assay type: cell-based; conditions: 9 days of trametinib treatment, entinostat treatment days 3-9 (6 days total)
# A549 cells = test: qRT-PCR of chemokine gene expression in A549 cells; assay type: cell-based, human; conditions: 2 uM entinostat 3 days, 5 uM BRD3308 4 days
# Protocol: as §1, §2
# KL lung tumors = test: 6-week in vivo entinostat and trametinib treatment, flow cytometry immune profiling; set-up: species or system mouse; conditions: 6 weeks; percentage of total CD45+ cells
# Protocol: The 6-week duration study was carried out according to the same experimental design except for the following: To ensure an extended treatment duration, treatment was initiated after tumor burden was detected by BLI in >30% of mice in the study. Entinostat was administered at a dose of 10 mg/kg to assess systemic drug impact at a dose corresponding to potent tumor growth control. Because mice were gavaged twice daily for an extended duration, an additional drug holiday was built into the dosing schedule starting after 3 weeks of treatment; mice were administered drug using the following schedule: 4 days on, 1 day off, 1 day on, and 1 day off (imaging day).
# Tumor digestion and cell isolation: Lungs were removed from the chest, washed with PBS, dried on paper towels and then tumor nodules were excised from adjacent tissue and both adjacent tissue and nodules were weighed. Nodules or adjacent tissue was minced into small pieces and suspended in digestion media consisting of RPMI 1640 with 2% FBS, 0.5 ug/mL of DNase I and 1 unit/mL collagenase Type I (Sigma-Aldrich Cat #0000137295) and placed in an incubator at 37° C. for 45 minutes, shaking once during digestion. […]
# KL LJE1 cells = test: Western blot and qRT-PCR of FGFR1, NKX2-1 and ERK phosphorylation in drug-treated KL LJE1 cells; assay type: cell-based, mouse; conditions: 13 days
# Protocol: as §1, §2
# Protein lysates in CST buffer (20 mM Tris pH 7.5, 150 mM NaCl, 1% Triton X-100, 50 mM NaF, 1 mM EDTA, 1 mM EGTA, 2.5 mM PyroPhosphate, 2 mM beta-glycerol-phosphate, 1 mM orthovanadate, 0.01 mM Calyculan A) with protease inhibitors were equilibrated for protein levels using a BCA protein assay kit (Pierce), resolved on 8% SDS-PAGE gels, and transferred to membrane. Membranes were blocked in milk, incubated o/n at 4C in diluted primary antibody, washed with TBS-T, incubated 1 hr in secondary antibody diluted in TBS-T plus milk, washed in TBS-T, and developed using SuperSignal ECL. Secondary antibodies: anti-rabbit (Millipore AP132P) and anti-mouse (Millipore AP124P). Nuclear fractions were isolated using a NE-PER nuclear and cytoplasmic extraction kit (Thermofisher) under manufacturers conditions.
structure (smiles),measurement,setting,value
Nc1ccccc1NC(=O)c1ccc(CNC(=O)OCc2cccnc2)cc1 [entinostat],chemokine (SASP) gene expression,H460 cells,induced the expression of these genes
same,impact of Trametinib on the FGFR1 resistance mechanism,[1],reverses the impact of Trametinib on the FGFR1 resistance mechanism
same,chemokine (SASP) gene expression,A549 cells,induced the expression of these genes
same,gMDSCs in lung tumors,KL lung tumors,No changes were observed
same,FGFR1 protein,"KL LJE1 cells; Western blot, 10 nM trametinib, 1 uM entinostat",neither FGFR1 protein or mRNA levels were impacted
same,FGFR1 mRNA levels,"KL LJE1 cells; qRT-PCR, 1 uM entinostat alone",neither FGFR1 protein or mRNA levels were impacted
